Data taken from patent US20210181109A1 (FUJIFILM Corporation, priority 2018, published 2021).

Key:
[1] = NAL depletion percent, HPLC-fluorescence detection
Procedure: (§1) 1) To a 50 mL vessel, 12.6 mg (±0.1 mg) of NAL is weighed; to this, a 25 mL measuring pipet is used to add 20 mL of 100 mmol/L phosphate buffer (pH: 10.2); and the content is gently stirred using a test tube mixture to achieve dissolution (2 mmol/L NAL solution). 2) To a 500 mL vessel, 149.5 mL of this buffer is added using a 50 mL measuring pipet; to this, 0.5 mL of the above-described 2 mmol/L NAL solution is added; and the content is mixed by inversion to achieve 300-fold dilution (6.667 μmol/L).
(§2) The test substance undiluted solution is defined as an “undiluted solution”, and used. Incidentally, this “undiluted solution” may be appropriately diluted to, for example, 1/10, 1/100, or 1/1000, using an appropriate solvent, and the resultant solution may be used.
(§3) Subsequently, the solution having the maximum dissolution concentration is defined as an “undiluted solution”, and tested. Incidentally, this “undiluted solution” may be appropriately diluted to, for example, 1/10, 1/100, or 1/1000, using an appropriate solvent, and the resultant solution may be used.
(§4) The test substance is prepared at 1 mmol/L in any of solvents that are water, acetonitrile, acetone, and a 5 mass % dimethyl sulfoxide (DMSO)/acetonitrile solution and used as a test substance solution. As the solvent, a solvent in which the test substance dissolves at 1 mmol/L is used; when the test substance is soluble in a plurality of solvents, the solvent is selected in the following order of decreasing precedence: water, acetonitrile, acetone, and 5 mass % DMSO/acetonitrile.
(§5) Test substance solutions are prepared on a 96-well plate (U96 PP-0.5 ML NATURAL, Thermo Fisher Scientific Inc. (NUNC)) mainly using a 12-channel pipette, and a reagent is added in accordance with the following formula.
(§6) Nucleophilic reagent (NAC and NAL): 150 μL
(§7) Test substance solution: 50 μL
(§8) The plate is tightly sealed using a plate sealing (Resistant embossed seal, SHIMADZU GLC Ltd.), and stirred using a plate shaker (Titramax 100, Heidolph Instruments GmbH & CO. KG). The plate is subjected to spinning down using a centrifuge, and then to incubation at 25° C., for 24 hours, in a light-shielded state.
(§9) After the incubation for 24 hours, the plate sealing is removed; to each sample, 50 µL of the reaction stopping solution is added to stop the reaction.
(§10) The HPLC measurement conditions for the nucleophilic reagents are as follows.
(§11) From the average values (each, n=3) of peak areas of the post-reaction unreacted NAC or NAL and the blank-test (after performing the reaction step without addition of the test substances) NAC or NAL, the following formula is used to calculate the depletion percent of NAC or NAL.
(§12) NAL depletion percent (% depletion)=[1−(Average value of peak areas of post-reaction unreacted NAL/Average value of peak areas of blank-test (after performing the reaction step without addition of the test substances) NAL)]×100
(§13) The average value of peak areas of post-reaction unreacted NAL is the average value of areas obtained by measuring three times post-reaction unreacted NAL. The average value of peak areas of blank-test (after performing the reaction step without addition of the test substances) NAL is the average value of areas obtained by measuring three times blank-test (after performing the reaction step without addition of the test substances) NAL.
(§14) The reactions were each performed on a 96-well plate, and the number of samples of each case was set to n=3. In addition, as controls, reaction solutions including the solvent alone were prepared. The reaction solutions were prepared so as to have a NAC or NAL concentration of 5 μmon. To the reaction solutions after the lapse of 24 hours, a trifluoroacetic acid (TFA) aqueous solution was added such that the final concentration became 0.5% (v/v) TFA. Subsequently, HPLC was performed for measurements by two detection methods that were light absorption detection using a photodiode array (PDA) detector, and fluorescence detection using a fluorescence detector.

[2] = Average score of NAC and NAL depletion and prediction of skin allergenicity, UV method; details: for Mean Depletion (%) (average score) / determination of skin allergenicity from average score: UV method; for determination of skin allergenicity from average score: criterion […]
Procedure: (§15) The average value (Average Score) of NAC and NAL depletion percents is calculated. In the resultant value, the second decimal place is rounded off.
(§16) Average value (Average Score) of NAC and NAL depletion percents=(NAC depletion percent+NAL depletion percent)/2
(§17) The depletion percent of at least one of NAC or NAL or the average score of the depletion percents of NAC and NAL is calculated, and whether or not the test substances are “allergenic substances” or “non-allergenic substances” is determined:
(§18) (1) in a case of performing evaluation based on the average value of the depletion percent of NAC and the depletion percent of NAL,
(§19) In the following Tables, S represents as being an allergenic substance and NS represents as being a non-allergenic substance.

[3] = NAC depletion percent, HPLC-UV detection (281 nm)
Procedure: as §1, with “11.6” for “12.6”, “NAC” for “NAL”, “8.0);” for “10.2);”, “mixer” for “mixture”, “mmol/L).” for “mmol/L NAL solution).”, “μmon).” for “μmol/L).”
as §2, §3, §4, §5, §6, §7, §8, §9, §10, §11
(§20) NAC depletion percent (% depletion)=[1−(Average value of peak areas of post-reaction unreacted NAC/Average value of peak areas of blank-test (after performing the reaction step without addition of the test substances) NAC)]×100
(§21) The average value of peak areas of the post-reaction unreacted NAC is the average value of areas obtained by measuring three times post-reaction unreacted NAC. The average value of peak areas of blank-test (after performing the reaction step without addition of the test substances) NAC is the average value of areas obtained by measuring three times blank-test (after performing the reaction step without addition of the test substances) NAC.
as §14

[4] = Average score of NAC and NAL depletion and prediction of skin allergenicity, fluorescence method; details: for determination of skin allergenicity from average score: criterion […]
Procedure: as §15, §16, §17, §18, §19

[5] = NAL depletion percent, HPLC-UV detection (281 nm)
Procedure: as §1, §2, §3, §4, §5, §6, §7, §8, §9, §10, §11, §12, §13, §14

[6] = NAC depletion percent, HPLC-fluorescence detection
Procedure: as §1, with “11.6” for “12.6”, “NAC” for “NAL”, “8.0);” for “10.2);”, “mixer” for “mixture”, “mmol/L).” for “mmol/L NAL solution).”, “μmon).” for “μmol/L).”
as §2, §3, §4, §5, §6, §7, §8, §9, §10, §11, §20, §21, §14

[7] = Fluorescence method, non-allergenic substance
[8] = Reference (UV method), skin allergenicity prediction
[9] = Reference (UV method), non-allergenic substance
[10] = Fluorescence method, skin allergenicity prediction
[11] = 1/1 (undiluted solution), fluorescence method, 25° C. 24 hours
[12] = 1/10 diluted solution, fluorescence method
[13] = 1/1 (undiluted solution), UV method
[14] = 1/10 diluted solution, UV method
[15] = 1/1 (undiluted solution), fluorescence method
[16] = single substance, test substance solution 1 mmol/L, fluorescence method
[17] = single substance, test substance solution 1 mmol/L, Reference (UV method)

Row | Structure (SMILES) | NAL depletion (%) [1, 7] [%] | Prediction result [2, 8] | NAC depletion (%) [3, 9] [%] | Prediction result [4, 10] | NAL depletion (%) [5, 9] [%] | NAC depletion (%) [6, 7] [%] | other results
1 | CC(O)CO (stereo not drawn) [Propylene glycol] | 5.0 | NS (NS represents as being a non-allergenic substance) | 0.1 | NS (NS represents as being a non-allergenic substance) | 2.2 | 0.7 | 
2 | O=C(O)c1ccc(O)c(O)c1 [Protocatechuic acid] |  |  |  |  |  |  | NAL depletion (%) [1, 11]: 38.3%; NAL depletion (%) [1, 12]: 11.5%; Mean Depletion (%) (average score) ([2]; 1/1 (undiluted solution)): 39.7%; determination of skin allergenicity from average score ([2]; 1/1 (undiluted solution)): having skin allergenicity; Mean Depletion (%) (average score) ([2]; 1/10 diluted solution): 21.0%; determination of skin allergenicity from average score ([2]; 1/10 diluted solution): having skin allergenicity; NAC depletion (%) [3, 13]: 60.8%; NAC depletion (%) [3, 14]: 30.1%; Mean Depletion (%) (average score) [4, 15]: 48.2%; determination of skin allergenicity from average score [4, 15]: having skin allergenicity; Mean Depletion (%) (average score) [4, 12]: 19.4%; determination of skin allergenicity from average score [4, 12]: having skin allergenicity; NAL depletion (%) [5, 13]: 18.6%; NAL depletion (%) [5, 14]: 11.9%; NAC depletion (%) [6, 11]: 58.1%; NAC depletion (%) [6, 12]: 27.3%
3 | Oc1cccc(O)c1 [Resorcinol] |  |  |  |  |  |  | NAL depletion (%) [1, 16]: 1.6%; Prediction result ([2]; single substance, Reference (UV method), criterion average score […]): NS (NS represents as being a non-allergenic substance); Average score [2, 17]: 3.1%; NAC depletion (%) [3, 17]: 4.0%; Prediction result ([4]; single substance, fluorescence method, criterion average score […]): NS (NS represents as being a non-allergenic substance); Average score [4, 16]: 1.2%; NAL depletion (%) [5, 17]: 2.2%; NAC depletion (%) [6, 16]: 0.8%
4 | O=C(O)c1ccccc1O [Salicylic acid] | 4.3 | NS (NS represents as being a non-allergenic substance) | 0.0 | NS (NS represents as being a non-allergenic substance) | 0.4 | 0.1 | 
5 | Nc1ccc(S(N)(=O)=O)cc1 [Sulfanilamide] | 3.6 | NS (NS represents as being a non-allergenic substance) | 0.0 | NS (NS represents as being a non-allergenic substance) | 1.4 | 0.5 | 
6 | Nc1ccc(S(=O)(=O)O)cc1 [Sulfanilic acid] | 0.1 | NS (NS represents as being a non-allergenic substance) | 0.5 | NS (NS represents as being a non-allergenic substance) | 0.4 | 0.0 | 
7 | COc1cc(C=O)ccc1O [Vanillin] | 0.0 | NS (NS represents as being a non-allergenic substance) | 1.5 | NS (NS represents as being a non-allergenic substance) | 1.9 | 2.0 | 
